Test results taken from patent publication US11084847B2, “Polyamide compound and use thereof” (SICHUAN KELUN-BIOTECH BIOPHARMACEUTICAL CO., LTD., priority 2016, dated 2021).
Where two headings read alike, the source gives them in different places.

Key:
[1] = molecular target: KOR (Homo sapiens, UniProt P41145); experiment: Opioid receptor selectivity, radioligand competition binding (3H-diprenophrine) on cell membranes
Procedure: (§1) The selectivity of the compounds of the invention for κ opioid receptors was determined by measuring the inhibitory effect of the compounds of Examples on the […] of KOR, MOR, and DOR.
(§2) The compounds of Examples at different concentrations were incubated with the cell membrane with high expression of KOR, MOR, DOR and the corresponding radioligand (KOR: 3H-diprenophrine; MOR: 3H-DAMGO; DOR: 3H-DADLE) for 1 h, the compounds of Examples competed with the radioligands for binding to KOR, MOR, DOR. After the incubation, Cell harvest was used to collect cell membranes onto a Unifilter-96 GF/C filter plate, and the unbound radioligands were washed away. The plate was placed in a 50-degree oven for 1 h, and finally the scintillation solution Microscint 20 cocktail was added and the isotope signal was detected by MicroBeta2 Reader.
(§3) According to the intensity of the isotope signal at different concentrations, the IC50 was calculated by means of fitting with a four-parameter equation, and the Ki value was calculated.
(§4) The Ki value was calculated according to the formula Ki=IC50/(1+[radioligand]/Kd), and Kd was the equilibrium dissociation constant of radioligand.

[2] = molecular target: MOR (Homo sapiens, UniProt P35372); experiment: Opioid receptor selectivity, radioligand competition binding (3H-DAMGO) on cell membranes
Procedure: as §1, §2, §3, §4

[3] = Pharmacokinetic (PK) study in rats; type: in vivo; conditions: male SD rats, intravenous, 1 mg/kg
Procedure: The pharmacokinetic profile of the compounds of Examples was studied by intravenous administration of the compounds of Examples to male SD rats. The dose for IV administration was 1 mg/kg, and the solvent was 5% DMSO: 5% solutol: 90% physiological saline. After IV administration, blood samples were collected at different time points for PK study. Plasma were treated by protein precipitation and then analyzed by LC-MS/MS.
In LC-MS/MS, mass spectrum was API 5500, and liquid chromatography was Shimadzu LC-30AD system. The column used for the test groups of Compound 3 and Compound 4 was Thermo C18 column (4.6 mm×100 mm, 3 μm); for mobile phases, phase A was water+0.1% formic acid, and phase B was methanol; the flow rate was 0.8 mL/min, and the column temperature was 40° C. The column used for the test group of Compound 5 was Agela AQ C18 column (2.1 mm×50 mm, 1.9 μm); for mobile phases, phase A was water+0.05% formic acid+5 mM acetic acid ammonium, and phase B was methanol+0.05% formic acid; the flow rate was 0.6 mL/min, and the column temperature was 40° C. The ion source used was the ESI source in positive ion mode, and the scanning mode was Multiple Reaction Monitoring (MRM).

[4] = Ability of compounds to pass through the blood-brain barrier (plasma and brain tissue concentration); type: in vivo; conditions: rat, male rats, iv 1 mg/kg; for concentration at 5 min: 5 min after administration; for concentration at 15 min: 15 min after administration; for concentration at 30 min: 30 min after administration; for concentration at 60 min: 60 min after administration
Procedure: After peripheral intravenous administration of the compound of each Example to the animal, samples of peripheral plasma and brain tissue were taken to determine the concentration of the compound in the peripheral plasma and brain tissue.
After intravenously injected with the compound of Example 5 at 1 mg/kg to male rats, samples of plasma and brain tissues were taken at various time points, and the contents of the test compound in the peripheral plasma and brain tissue were determined.

[5] = molecular target: DOR (Homo sapiens, UniProt P41143); experiment: Opioid receptor selectivity, radioligand competition binding (3H-DADLE) on cell membranes
Procedure: as §1, §2, §3, §4

[6] = tested on: male ICR mice; experiment: Acetic acid-induced writhing test in mice; type: in vivo; set-up: ED50: unit not given here
Procedure: The analgesic effect of the compound of the invention was evaluated by measuring the ED50 of the compounds of Examples in the acetic acid-induced writhing test in mice.
The commercial glacial acetic acid solution was diluted with physiological saline to 0.6% glacial acetic acid solution. The male ICR mice were randomly separated into the drug group and the model group (to which physiological saline was administration). 15 minutes after iv administration, 0.6% acetic acid solution was intraperitoneally injected at 10 ml/kg, and the mice was immediately recorded with DV camera for 15 min. After the recording, the number of writhes of the mice within 15 min was counted from the video by blind method, the inhibition rate for the writhes was calculated according to Formula (I), and the ED50 of the compound was calculated according to Formula (II).
(I) The inhibition rate for the writhes was calculated by the formula: Inhibition rate (%)=(the number of writhes in a model group−the number of writhes in a drug group)/the number of writhes in a model group*100.
(II) The ED50 was calculated by the formula:
[formula] wherein Xm was the logarithm of the highest dose, d was the difference in the logarithm of two adjacent doses, p was the inhibition rate for each dose group, pm was the highest-dose inhibition rate, and pn was the lowest-dose inhibition rate.

[7] = molecular target: T1, human κ-opioid receptor (KOR) (Homo sapiens, UniProt P41145); experiment: κ-opioid receptor agonistic effect (inhibition of adenylate cyclase, cAMP assay); type: cell-based; conditions: CHO cells stably expressing human KOR; NKH477-stimulated cAMP; four-parameter fit; read-out: ED50 (the source's name)
T1 construct: expressed in transfected cells
Procedure: The efficacy of the compounds of the invention as κ-opioid receptor agonists was determined by measuring the ability of the compounds of Examples to inhibit adenylate cyclase activity.
Cell culture: hamster ovary cells CHO stably expressing human κ-opioid receptor (KOR) gene were cultured in MEMα plus nucleosides medium (Invitrogen) containing 5% FBS.
Stimulation: the test compound was 4-fold diluted in a gradient manner to obtain 11 concentrations, and 100 nl of each was transferred to a 384-well plate, and then a stimulating solution (5 uL) containing NKH477 (Tocris) was added; the cells were digested, re-suspended, and counted; and then the cells (5 uL) were added to wells, mixed gently, and incubated at 37° C. for 30 min.
Detection: cAMP Assay Kit (Cisbio) was used, cAMP-D2 and Anti-cAMP-Cryptate were added separately, and the resultant mixture was incubated for 1 h at room temperature. The plate was read using envision (Perkin Elmer) and EC50 was obtained by means of fitting with a four-parameter equation.

[8] = brain, read-out: Concentration in brain tissue
[9] = plasma, read-out: Concentration in peripheral plasma

COCCOCCNCCCC[C@@H](NC(=O)[C@@H](CC(C)C)NC(=O)[C@@H](Cc1ccccc1)NC(=O)[C@H](N)Cc1ccccc1)C(=O)N1CCC(N)(C(=O)O)CC1 [Example 5, 4-amino-1-((R)-2-((R)-2-((R)-2-((R)-2-amino-3-phenylpropanamido)-3-phenylpropanamido)-4-methylpentanamido)-6-((2-(2-methoxyethoxy)ethyl)amino)hexanoyl)piperidin-4-carboxylic acid]
KOR selectivity (in words) ([1]; KOR versus MOR and DOR binding): excellent KOR selectivity
Ki ([1]; Ki=IC50/(1+[radioligand]/Kd), read-out: KOR Ki): 0.02 nM
IC50 ([1]; radioligand 3H-diprenophrine, 1 h incubation, read-out: KOR IC50): 0.05 nM
Ki ([2]; Ki=IC50/(1+[radioligand]/Kd), read-out: MOR Ki): > 7180 nM
IC50 ([2]; radioligand 3H-DAMGO, 1 h incubation, read-out: MOR IC50): > 20000 nM
pharmacokinetic profile (in words) [3]: good exposure amount and Cmax
AUC(0-t) ([3]; rat, plasma): 783 ng·h/mL
Cmax ([3]; rat, plasma): 1690 ng/mL
Vd ([3]; rat, plasma): 0.53 L/kg
half-life ([3]; rat, plasma): 16.8 min
concentration at 5 min [4, 8]: 0 ng/mL
concentration at 15 min [4, 8]: 0 ng/mL
concentration at 30 min [4, 8]: 0.2 ng/mL
concentration at 60 min [4, 8]: 0 ng/mL
concentration at 5 min [4, 9]: 1310 ng/mL
concentration at 15 min [4, 9]: 716 ng/mL
concentration at 30 min [4, 9]: 386 ng/mL
concentration at 60 min [4, 9]: 136 ng/mL
Ki ([5]; Ki=IC50/(1+[radioligand]/Kd), read-out: DOR Ki): > 12000 nM
IC50 ([5]; radioligand 3H-DADLE, 1 h incubation, read-out: DOR IC50): > 20000 nM
analgesic effect (in words) ([6]; acetic acid-induced writhing, mice, iv): significant analgesic effect
ED50 ([6]; iv administration 15 min before 0.6% acetic acid ip, writhes counted within 15 min): 0.017
EC50 [7]: 0.05 nM
